In patent publication US12486253B2, “Therapeutics for the degradation of mutant BRAF” (C4 THERAPEUTICS, INC., priority 2021, dated 2025):

Biological target: BRAF V600E (Homo sapiens, UniProt P15056, V600E)
Test: HiBiT cellular BRAF^V600E degradation assay
Assay type: cell-based
Details: A375.10 cells, 24 h; for DC50: concentration at which 50% of total cellular BRAF^V600E is degraded; for Emax: residual protein remaining in the cell, read-out: HiBit 24 h Emax

BRAF V600E, sequence (P15056 whole entry V600E): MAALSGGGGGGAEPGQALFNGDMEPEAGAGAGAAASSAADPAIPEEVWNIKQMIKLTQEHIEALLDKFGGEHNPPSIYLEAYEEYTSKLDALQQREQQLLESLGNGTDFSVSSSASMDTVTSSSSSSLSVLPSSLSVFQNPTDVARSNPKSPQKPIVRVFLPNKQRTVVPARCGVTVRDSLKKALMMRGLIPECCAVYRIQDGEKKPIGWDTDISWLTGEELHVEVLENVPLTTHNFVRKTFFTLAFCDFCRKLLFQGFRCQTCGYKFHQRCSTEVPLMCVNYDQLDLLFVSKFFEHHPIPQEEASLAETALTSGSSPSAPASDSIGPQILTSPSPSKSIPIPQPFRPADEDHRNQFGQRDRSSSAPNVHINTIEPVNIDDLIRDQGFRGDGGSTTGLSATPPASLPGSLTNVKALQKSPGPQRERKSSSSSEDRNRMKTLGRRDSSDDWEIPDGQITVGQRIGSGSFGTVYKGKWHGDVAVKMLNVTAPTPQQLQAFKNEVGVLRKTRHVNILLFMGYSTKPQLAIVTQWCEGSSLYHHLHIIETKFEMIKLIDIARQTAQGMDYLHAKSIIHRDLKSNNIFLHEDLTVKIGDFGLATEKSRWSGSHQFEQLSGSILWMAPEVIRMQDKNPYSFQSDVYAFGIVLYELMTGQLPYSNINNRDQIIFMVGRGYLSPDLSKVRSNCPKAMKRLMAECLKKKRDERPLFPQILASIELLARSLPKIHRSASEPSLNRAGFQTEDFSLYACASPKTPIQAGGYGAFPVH

`CN(CC(F)F)S(=O)(=O)Nc1ccc(F)c(Oc2ccc3ncn(-c4cnc(N5CCN(C(=O)CN6CCC(c7ccc(N[C@H]8CCC(=O)NC8=O)cc7F)CC6)CC5)nc4)c(=O)c3c2)c1C#N` [Example 122, 6-[2-cyano-3-[[2,2-difluoroethyl(methyl)sulfamoyl]amino]-6-fluorophenoxy]-3-[2-[4-[2-[4-[4-[[(3S)-2,6-dioxopiperidin-3-yl]amino]-2-fluorophenyl]piperidin-1-yl]acetyl]piperazin-1-yl]pyrimidin-5-yl]-4-oxoquinazoline] showed a DC50 of 27.1 nM and an Emax of 8.26%.

`N#Cc1c(NS(=O)(=O)N2CCC(F)(F)C2)ccc(F)c1Oc1ccc2ncn(-c3cnc(N4CCN(C(=O)CN5CCC(c6ccc(N[C@@H]7CCC(=O)NC7=O)cc6F)CC5)CC4)nc3)c(=O)c2c1` [Example 123, N-[2-cyano-3-[3-[2-[4-[2-[4-[4-[[(3R)-2,6-dioxopiperidin-3-yl]amino]-2-fluorophenyl]piperidin-1-yl]acetyl]piperazin-1-yl]pyrimidin-5-yl]-4-oxoquinazolin-6-yl]oxy-4-fluorophenyl]-3,3-difluoropyrrolidine-1-sulfonamide] gave a DC50 of 50.7 nM and an Emax of 14%.

For `N#Cc1c(NS(=O)(=O)N2CC[C@@H](F)C2)ccc(F)c1Oc1ccc2ncn(-c3cnc(N4CCN(C(=O)CN5CCC(c6ccc(N[C@@H]7CCC(=O)NC7=O)cc6F)CC5)CC4)nc3)c(=O)c2c1` [Example 124, (3R)—N-[2-cyano-3-[3-[2-[4-[2-[4-[4-[[(3R)-2,6-dioxopiperidin-3-yl]amino]-2-fluorophenyl]piperidin-1-yl]acetyl]piperazin-1-yl]pyrimidin-5-yl]-4-oxoquinazolin-6-yl]oxy-4-fluorophenyl]-3-fluoropyrrolidine-1-sulfonamide], the DC50 was 15.7 nM and the Emax was 12%.

Work on `N#Cc1c(NS(=O)(=O)N2CCC2)ccc(F)c1Oc1ccc2ncn(-c3cnc(N4CCN(C(=O)CN5CCC(c6ccc(N[C@@H]7CCC(=O)NC7=O)cc6F)CC5)CC4)nc3)c(=O)c2c1` [Example 125, N-[2-cyano-3-[3-[2-[4-[2-[4-[4-[[(3R)-2,6-dioxopiperidin-3-yl]amino]-2-fluorophenyl]piperidin-1-yl]acetyl]piperazin-1-yl]pyrimidin-5-yl]-4-oxoquinazolin-6-yl]oxy-4-fluorophenyl]azetidine-1-sulfonamide] yielded a DC50 of 15.7 nM and an Emax of 12.6%.

In the case of `CN(C1CC1)S(=O)(=O)Nc1ccc(F)c(Oc2ccc3ncn(-c4cnc(N5CCN(C(=O)CN6CCC(c7ccc(N[C@@H]8CCC(=O)NC8=O)cc7F)CC6)CC5)nc4)c(=O)c3c2)c1C#N` [Example 126, 6-[2-cyano-3-[[cyclopropyl(methyl)sulfamoyl]amino]-6-fluorophenoxy]-3-[2-[4-[2-[4-[4-[[(3R)-2,6-dioxopiperidin-3-yl]amino]-2-fluorophenyl]piperidin-1-yl]acetyl]piperazin-1-yl]pyrimidin-5-yl]-4-oxoquinazoline], the DC50 is reported as 22.2 nM and the Emax is reported as 13.7%.

With `CN(C1CC1)S(=O)(=O)Nc1ccc(F)c(Oc2ccc3ncn(-c4cnc(N5CCN(C(=O)CN6CCC(c7ccc(N[C@H]8CCC(=O)NC8=O)cc7F)CC6)CC5)nc4)c(=O)c3c2)c1C#N` [Example 127, 6-[2-cyano-3-[[cyclopropyl(methyl)sulfamoyl]amino]-6-fluorophenoxy]-3-[2-[4-[2-[4-[4-[[(3S)-2,6-dioxopiperidin-3-yl]amino]-2-fluorophenyl]piperidin-1-yl]acetyl]piperazin-1-yl]pyrimidin-5-yl]-4-oxoquinazoline] the DC50 was 20.7 nM and the Emax was 8.95%.

For `N#Cc1c(NS(=O)(=O)N2C[C@H]3C[C@H]3C2)ccc(F)c1Oc1ccc2ncn(-c3cnc(N4CCN(C(=O)CN5CCC(c6ccc(N[C@H]7CCC(=O)NC7=O)cc6F)CC5)CC4)nc3)c(=O)c2c1` [Example 128, (1S,5R)—N-[2-cyano-3-[3-[2-[4-[2-[4-[4-[[(3S)-2,6-dioxopiperidin-3-yl]amino]-2-fluorophenyl]piperidin-1-yl]acetyl]piperazin-1-yl]pyrimidin-5-yl]-4-oxoquinazolin-6-yl]oxy-4-fluorophenyl]-3-azabicyclo[3.1.0]hexane-3-sulfonamide], the DC50 was 19.5 nM and the Emax was 9.91%.

`N#Cc1c(NS(=O)(=O)N2C[C@@H](F)[C@H](F)C2)ccc(F)c1Oc1ccc2ncn(-c3cnc(N4CCN(C(=O)CN5CCC(c6ccc(N[C@H]7CCC(=O)NC7=O)cc6F)CC5)CC4)nc3)c(=O)c2c1` [Example 129, (3R,4R)—N-[2-cyano-3-[3-[2-[4-[2-[4-[4-[[(3S)-2,6-dioxopiperidin-3-yl]amino]-2-fluorophenyl]piperidin-1-yl]acetyl]piperazin-1-yl]pyrimidin-5-yl]-4-oxoquinazolin-6-yl]oxy-4-fluorophenyl]-3,4-difluoropyrrolidine-1-sulfonamide] was tested, and the DC50 was 29.6 nM and the Emax was 10.3%.

With `N#Cc1c(NS(=O)(=O)N2CCC2)ccc(F)c1Oc1ccc2ncn(-c3cnc(N4CCN(C(=O)CN5CCC(c6ccc(N[C@H]7CCC(=O)NC7=O)cc6F)CC5)CC4)nc3)c(=O)c2c1` [Example 130, N-[2-cyano-3-[3-[2-[4-[2-[4-[4-[[(3S)-2,6-dioxopiperidin-3-yl]amino]-2-fluorophenyl]piperidin-1-yl]acetyl]piperazin-1-yl]pyrimidin-5-yl]-4-oxoquinazolin-6-yl]oxy-4-fluorophenyl]azetidine-1-sulfonamide] the DC50 was 16.5 nM and the Emax was 7.25%.

Compound `N#Cc1c(NS(=O)(=O)C2CCC2)ccc(F)c1Oc1ccc2ncn(-c3cnc(N4CCN(C(=O)CN5CCC(c6ccc(N[C@H]7CCC(=O)NC7=O)cc6F)CC5)CC4)nc3)c(=O)c2c1` [Example 132, N-[2-cyano-3-[3-[2-[4-[2-[4-[4-[[(3S)-2,6-dioxopiperidin-3-yl]amino]-2-fluorophenyl]piperidin-1-yl]acetyl]piperazin-1-yl]pyrimidin-5-yl]-4-oxoquinazolin-6-yl]oxy-4-fluorophenyl]cyclobutanesulfonamide] has a DC50 of 13.8 nM and an Emax of 11.1%.

For `N#Cc1c(NS(=O)(=O)C2CCC2)ccc(F)c1Oc1ccc2ncn(-c3cnc(N4CCN(C(=O)CN5CCC(c6ccc(N[C@@H]7CCC(=O)NC7=O)cc6F)CC5)CC4)nc3)c(=O)c2c1` [Example 133, N-[2-cyano-3-[3-[2-[4-[2-[4-[4-[[(3R)-2,6-dioxopiperidin-3-yl]amino]-2-fluorophenyl]piperidin-1-yl]acetyl]piperazin-1-yl]pyrimidin-5-yl]-4-oxoquinazolin-6-yl]oxy-4-fluorophenyl]cyclobutanesulfonamide], the DC50 was 27.2 nM and the Emax was 8.2%.

With `CCN(C)S(=O)(=O)Nc1ccc(F)c(Oc2ccc3ncn(-c4cnc(N5CCN(C(=O)CN6CCC(c7ccc(N[C@@H]8CCC(=O)NC8=O)cc7F)CC6)CC5)nc4)c(=O)c3c2COC)c1C#N` [Example 135, 6-[2-cyano-3-[[ethyl(methyl)sulfamoyl]amino]-6-fluorophenoxy]-3-[2-[4-[2-[4-[4-[[(3R)-2,6-dioxopiperidin-3-yl]amino]-2-fluorophenyl]piperidin-1-yl]acetyl]piperazin-1-yl]pyrimidin-5-yl]-5-(methoxymethyl)-4-oxoquinazoline] the DC50 was 31.4 nM and the Emax was 13.7%.

For `CCN(C)S(=O)(=O)Nc1ccc(F)c(Oc2ccc3ncn(-c4cnc(N5CCN(C(=O)CN6CCC(c7ccc(N[C@H]8CCC(=O)NC8=O)cc7F)CC6)CC5)nc4)c(=O)c3c2O)c1C#N` [Example 136, 6-[2-cyano-3-[[ethyl(methyl)sulfamoyl]amino]-6-fluorophenoxy]-3-[2-[4-[2-[4-[4-[[(3S)-2,6-dioxopiperidin-3-yl]amino]-2-fluorophenyl]piperidin-1-yl]acetyl]piperazin-1-yl]pyrimidin-5-yl]-5-hydroxy-4-oxoquinazoline], the DC50 was 16.3 nM and the Emax was 16.9%.

`CCN(C)S(=O)(=O)Nc1ccc(F)c(Oc2ccc3ncn(-c4cnc(N5CCN(C(=O)CN6CCC(c7ccc(N[C@@H]8CCC(=O)NC8=O)cc7F)CC6)CC5)nc4)c(=O)c3c2O)c1C#N` [Example 137, 6-[2-cyano-3-[[ethyl(methyl)sulfamoyl]amino]-6-fluorophenoxy]-3-[2-[4-[2-[4-[4-[[(3R)-2,6-dioxopiperidin-3-yl]amino]-2-fluorophenyl]piperidin-1-yl]acetyl]piperazin-1-yl]pyrimidin-5-yl]-5-hydroxy-4-oxoquinazoline] gave a DC50 of 34.2 nM and an Emax of 25.1%.

For `O=C1CC[C@H](Nc2ccc(C3CCN(CC(=O)N4CCN(c5ncc(-n6cnc7ccc(Oc8c(F)ccc(NS(=O)(=O)C9CCCC9)c8F)cc7c6=O)cn5)CC4)CC3)c(F)c2)C(=O)N1` [Example 138, N-[3-[3-[2-[4-[2-[4-[4-[[(3S)-2,6-dioxopiperidin-3-yl]amino]-2-fluorophenyl]piperidin-1-yl]acetyl]piperazin-1-yl]pyrimidin-5-yl]-4-oxoquinazolin-6-yl]oxy-2,4-difluorophenyl]cyclopentanesulfonamide], the DC50 was 17.2 nM and the Emax was 10.7%.

`CCN(C)S(=O)(=O)Nc1ccc(F)c(Oc2ccc3ncn(-c4cnc(N5CCN(C(=O)CN6CCC(c7ccc(N[C@@H]8CCC(=O)NC8=O)cc7F)CC6)CC5)nc4)c(=O)c3c2)c1F` [Example 139, 3-[2-[4-[2-[4-[4-[[(3R)-2,6-dioxopiperidin-3-yl]amino]-2-fluorophenyl]piperidin-1-yl]acetyl]piperazin-1-yl]pyrimidin-5-yl]-6-[3-[[ethyl(methyl)sulfamoyl]amino]-2,6-difluorophenoxy]-4-oxoquinazoline] was tested, and the DC50 was 41.2 nM and the Emax was 13.2%.

`CCN(C)S(=O)(=O)Nc1ccc(F)c(Oc2ccc3ncn(-c4cnc(N5CCN(C(=O)CN6CCC(c7ccc(N[C@H]8CCC(=O)NC8=O)cc7F)CC6)CC5)nc4)c(=O)c3c2)c1F` [Example 140, 3-[2-[4-[2-[4-[4-[[(3S)-2,6-dioxopiperidin-3-yl]amino]-2-fluorophenyl]piperidin-1-yl]acetyl]piperazin-1-yl]pyrimidin-5-yl]-6-[3-[[ethyl(methyl)sulfamoyl]amino]-2,6-difluorophenoxy]-4-oxoquinazoline] was tested, and the DC50 was 27.8 nM and the Emax was 12.3%.
